# System: HDACs
# Test: HDAC deacetylase inhibition assay (trypsin-coupled fluorescent substrate)
# Format: biochemical
# Protocol: Selected compounds of the invention were tested for activity against a number of HDACs. The assays were performed substantially as described in PCT Patent Application WO/2008/091349. In brief, a target substrate is incubated with an HDAC or other protein with deacetylase activity in the presence of a test compound. In certain embodiments, the target substrate includes an acetylated lysine residue. Deacetylation of the substrate allows trypsin or another protease to cleave the substrate, thereby releasing a fluorescent probe. Fluorescence can be continuously monitored in order to determine the ability of the test compound to inhibit the deacetylation activity. The HDAC or other enzyme may be purified or used crude in the inventive assay. In certain embodiments, the assay is a cell-free assay.
smiles,measurement,value
CCCCOc1ccc(CC(=O)NO)cc1 [bufexamac],inhibition of HDAC (result in words),inhibitor of HDAC

# — US20140107166A1, “HISTONE DEACETYLASE INHIBITORS AND METHODS OF USE THEREOF” (DANA-FARBER CANCER INSTITUTE, INC., priority 2011, published 2014)
